Results reported in US12102633B2, “Spirolactone compounds” (Quixgen, Inc., priority 2017, dated 2024).

Experiments:
human ACC2 = target: T1, human ACC2 (Homo sapiens, UniProt O00763); assay: Human ACC enzymatic activity assay (ACC2); format: biochemical; conditions: purified human ACC2; read-out: EA-CoA hACC 2 IC50
T1 construct: purchased BPS Bioscience
Procedure: (§1) Human ACC enzymatic activity assays were performed by using purified human ACC1 and ACC2 proteins (BPS Bioscience). ACC1 and ACC2 proteins were diluted in 24.5 μL reaction buffer (50 mM HEPES pH 7.5, 10 mM MgCl2, 2.0 mM DTT, 4.0 mM ATP, 15 mM ^13C-NaHCO3, 0.75 mg/mL BSA, 0.5 mM sodium citrate), and final concentrations of ACC1 and ACC2 were 0.4 μg/mL and 0.48 μg/mL. For each reaction, 0.5 μL of serial diluted compounds were prepared in DMSO in duplicate or triplicate and mixed with the above 24.5 μL reaction mixtures with ACC proteins at 37° C. for 10 min. Meanwhile, 25 μL of reaction buffer plus acetyl-CoA (final concentration: 5 μM) was prepared freshly and added to the above 25 μL mixture to initiate the reaction. After incubation at 37° C. for 1-2 hours, 100 μl ice-cold 10% TCA with malonyl-^13C3-CoA (final concentration: 40 nM, Sigma-Aldrich) was added to terminate the reaction. For LC-MS/MS analysis, 300 μL quenching buffer (acetonitrile:methanol=1:1, 20 μM carbutamide as internal standard) was added to each tube and mixed well. Samples were then centrifuged at 14,000 rpm for 10 min (Eppendorf) and supernatants were loaded onto LC-MS/MS for quantitation of […] (Gao et al., Journal of chromatography B, Analytical technologies in the biomedical and life sciences 853, 303-313 (2007)).
(§2) Shimadzu LC system was used for sample analysis consisting of system controller (Shimadzu CBM-20A), autosampler (Shimadzu SIL-20A), pump A and B (Shimadzu LC-20AD), column oven (Shimadzu CTO-20A), and analytical column (Phenomenex Gemini 5u C18 11A, 100×2 mm). LC was running at 200 μL/min in the binary gradient mode with mobile phase A (5 mM Ammonium Acetate and 5 mM DMBA in water (1,3-Dimethylbutylamine)) and B (methanol). The samples were analyzed on an AB Sciex QTrap4000 LC-MS/MS triple quadrupole mass spectrometer (Applied Biosystems). Malonyl-CoA and malonyl-13C-CoA were monitored in positive ion mode following MRM transitions at 854.2/347.1 and 855.1/246.1, respectively. The product and internal standard were coeluted to the mass spectrometer in 3 s with 50% H2O, 25% MeCN, 25% acetone, and 5 mM ammonium acetate. Ion chromatograms were integrated using the Analyst 1.5.2 software. Peak area ratios were compared against a standard curve and final cellular concentration of malonyl-CoA or production rate of malonyl-13C-CoA was calculated as pmoles/mg protein per minute.

human ACC1 = target: T2, human ACC1 (Homo sapiens, UniProt Q13085); assay: Human ACC enzymatic activity assay (ACC1); format: biochemical; conditions: purified human ACC1; read-out: EA-CoA hACC 1 IC50
T2 construct: purchased BPS Bioscience
Procedure: as §1, §2

[1] = PK study in male C57 mouse for Examples 14 and 15; format: in vivo; conditions: for concentration at 0.5 h: 0.50 h
Procedure: Pharmacokinetic studies were carried out with male C57 mouse. Compounds (Example 14 and Example 15) were each formulated in 5% DMSO+10% Solutol HS 15+85% Saline, and dosed at 1 mpk for IV injection (5 mL/kg) and 10 mpk for oral gavage (10 mUkg). Plasma samples at various time points were quantitated with LC-MS. Data reported were average of three mice.
Tables 1 and 2 below show plasma concentrations (ng/mL) and PK parameters of Example 14 in male C57 mouse after 1 mpk IV injection and 10 mpk PO gavage, respectively. The plasma concentration (ng/mL) of the acid compound, Example 15, was also measured and reported below.
Tables 3 and 4 below show plasma concentrations (ng/mL) and PK parameters of Example 15 in male C57 mouse after 1 mpk IV injection and 10 mpk PO gavage, respectively.

[2] = male, C57, mouse, plasma, iv, 1 mg/kg, Example 14 dosed 1 mpk IV, analyte = labelled compound
[3] = male, C57, mouse, plasma, iv, 1 mg/kg, Example 15 dosed 1 mpk IV
[4] = male, C57, mouse, plasma, po, 10 mg/kg, Example 14 dosed 10 mpk PO gavage, analyte = labelled compound
[5] = male, C57, mouse, plasma, po, 10 mg/kg, Example 15 dosed 10 mpk PO gavage
[6] = plasma, 1 mg/kg, Example 15 dosed 1 mpk IV

T1 sequence (O00763 whole entry): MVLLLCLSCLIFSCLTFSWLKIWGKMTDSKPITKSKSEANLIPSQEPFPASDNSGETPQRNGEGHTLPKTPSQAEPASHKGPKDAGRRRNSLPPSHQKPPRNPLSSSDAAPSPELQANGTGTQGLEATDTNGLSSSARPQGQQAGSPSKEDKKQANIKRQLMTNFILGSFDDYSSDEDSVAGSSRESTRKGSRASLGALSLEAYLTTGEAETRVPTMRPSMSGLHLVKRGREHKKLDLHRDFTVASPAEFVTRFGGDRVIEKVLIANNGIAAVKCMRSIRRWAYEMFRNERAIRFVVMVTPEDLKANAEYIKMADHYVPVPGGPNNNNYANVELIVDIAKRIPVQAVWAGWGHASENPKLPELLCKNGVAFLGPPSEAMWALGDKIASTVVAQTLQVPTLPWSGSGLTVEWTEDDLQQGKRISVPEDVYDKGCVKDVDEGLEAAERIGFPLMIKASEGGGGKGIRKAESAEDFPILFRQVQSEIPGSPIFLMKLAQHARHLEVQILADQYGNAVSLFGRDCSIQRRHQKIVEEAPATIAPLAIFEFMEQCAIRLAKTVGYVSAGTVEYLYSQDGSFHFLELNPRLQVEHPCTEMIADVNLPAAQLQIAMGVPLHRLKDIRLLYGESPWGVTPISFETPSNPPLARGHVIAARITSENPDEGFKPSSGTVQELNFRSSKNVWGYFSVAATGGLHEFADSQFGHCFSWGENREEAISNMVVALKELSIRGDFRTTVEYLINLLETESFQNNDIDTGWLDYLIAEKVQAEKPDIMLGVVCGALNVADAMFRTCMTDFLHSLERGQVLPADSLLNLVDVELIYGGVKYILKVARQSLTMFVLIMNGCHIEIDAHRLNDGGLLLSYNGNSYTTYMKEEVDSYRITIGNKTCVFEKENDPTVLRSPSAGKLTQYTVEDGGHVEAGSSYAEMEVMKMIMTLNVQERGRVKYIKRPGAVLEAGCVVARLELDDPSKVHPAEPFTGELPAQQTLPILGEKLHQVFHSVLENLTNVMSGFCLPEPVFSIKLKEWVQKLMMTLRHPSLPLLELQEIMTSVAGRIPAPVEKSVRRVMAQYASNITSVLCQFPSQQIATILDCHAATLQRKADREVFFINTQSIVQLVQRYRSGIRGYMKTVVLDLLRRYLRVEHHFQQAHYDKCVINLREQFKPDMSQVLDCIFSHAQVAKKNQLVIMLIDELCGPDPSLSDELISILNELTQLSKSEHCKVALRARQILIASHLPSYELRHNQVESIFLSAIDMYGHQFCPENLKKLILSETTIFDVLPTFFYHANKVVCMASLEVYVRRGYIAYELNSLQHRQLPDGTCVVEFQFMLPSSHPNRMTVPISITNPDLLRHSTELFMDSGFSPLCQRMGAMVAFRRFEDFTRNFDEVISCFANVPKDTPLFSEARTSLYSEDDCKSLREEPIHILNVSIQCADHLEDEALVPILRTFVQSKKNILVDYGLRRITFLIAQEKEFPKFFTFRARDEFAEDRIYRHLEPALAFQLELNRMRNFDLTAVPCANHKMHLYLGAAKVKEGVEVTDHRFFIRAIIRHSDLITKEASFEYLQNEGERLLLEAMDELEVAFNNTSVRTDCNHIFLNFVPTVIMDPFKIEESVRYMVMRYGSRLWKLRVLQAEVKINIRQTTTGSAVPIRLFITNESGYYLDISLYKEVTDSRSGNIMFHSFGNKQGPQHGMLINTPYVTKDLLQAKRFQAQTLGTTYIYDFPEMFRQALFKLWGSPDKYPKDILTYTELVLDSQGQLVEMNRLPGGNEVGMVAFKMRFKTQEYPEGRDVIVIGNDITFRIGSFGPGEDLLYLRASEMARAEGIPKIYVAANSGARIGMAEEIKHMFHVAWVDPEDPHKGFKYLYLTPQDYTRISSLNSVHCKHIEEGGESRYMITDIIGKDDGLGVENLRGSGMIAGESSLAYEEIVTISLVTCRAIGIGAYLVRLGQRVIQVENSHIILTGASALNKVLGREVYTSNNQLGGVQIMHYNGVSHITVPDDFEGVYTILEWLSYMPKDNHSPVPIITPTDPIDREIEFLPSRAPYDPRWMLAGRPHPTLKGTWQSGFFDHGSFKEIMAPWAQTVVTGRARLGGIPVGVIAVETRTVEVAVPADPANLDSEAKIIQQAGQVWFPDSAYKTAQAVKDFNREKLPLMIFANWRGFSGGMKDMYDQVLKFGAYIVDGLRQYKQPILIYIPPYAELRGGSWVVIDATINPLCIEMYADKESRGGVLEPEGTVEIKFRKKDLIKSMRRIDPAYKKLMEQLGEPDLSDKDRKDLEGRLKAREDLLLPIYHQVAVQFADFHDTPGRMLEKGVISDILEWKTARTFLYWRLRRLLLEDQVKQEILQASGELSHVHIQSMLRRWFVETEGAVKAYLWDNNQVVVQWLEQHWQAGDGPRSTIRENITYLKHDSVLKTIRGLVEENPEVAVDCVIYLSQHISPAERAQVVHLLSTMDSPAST

COc1cc(C(=O)N2CCC3(CC2)Cc2ccc(-c4cncc(C(=O)O)c4)cc2C(=O)O3)nc2c(OC)cccc12 [Example 15, 5-(1′-(4,8-dimethoxyquinoline-2-carbonyl)-1-oxospiro [isochroman-3,4′-piperidin]-7-yl)nicotinic acid]
IC50 (human ACC2): 33 nM | IC50 (human ACC1): 27.5 nM | Plasma Concentration, Mean ([1]; Example 14 dosed 1 mpk IV, 24.00 h, analyte = labelled compound): BLQ | Plasma Concentration, Mean ([1]; Example 15 dosed 1 mpk IV, 4.00 h): BLQ | Plasma Concentration, Mean ([1]; Example 15 dosed 1 mpk IV, 8.00 h): BLQ | Plasma Concentration, Mean ([1]; Example 15 dosed 1 mpk IV, 24.00 h): BLQ | F ([1]; Example 15 dosed 10 mpk PO gavage): 1.7% | Plasma Concentration, Mean ([1]; Example 15 dosed 10 mpk PO gavage, 24.00 h): BLQ | concentration at 0.08 h [1, 2]: 122 ng/mL | concentration at 0.25 h [1, 2]: 161 ng/mL | concentration at 0.5 h [1, 2]: 107 ng/mL | concentration at 1 h [1, 2]: 55 ng/mL | concentration at 2 h [1, 2]: 16 ng/mL | concentration at 4 h ([1]; male, C57, mouse, plasma, iv, 1 mg/kg, Example 14 dosed 1 mpk IV, 4.00 h, analyte = labelled compound): 3.4 ng/mL | concentration at 8 h ([1]; male, C57, mouse, plasma, iv, 1 mg/kg, Example 14 dosed 1 mpk IV, 8.00 h, analyte = labelled compound): 1.5 ng/mL | MRT [1, 3]: 6.6 min | concentration at 0.08 h [1, 3]: 3010 ng/mL | concentration at 0.25 h [1, 3]: 414 ng/mL | concentration at 0.5 h [1, 3]: 95 ng/mL | concentration at 1 h [1, 3]: 28 ng/mL | concentration at 2 h [1, 3]: 6.6 ng/mL | concentration at 0.25 h [1, 4]: 152 ng/mL | concentration at 0.5 h [1, 4]: 168 ng/mL | concentration at 1 h [1, 4]: 146 ng/mL | concentration at 2 h [1, 4]: 84 ng/mL | concentration at 4 h ([1]; male, C57, mouse, plasma, po, 10 mg/kg, Example 14 dosed 10 mpk PO gavage, 4.00 h, analyte = labelled compound): 43 ng/mL | concentration at 8 h ([1]; male, C57, mouse, plasma, po, 10 mg/kg, Example 14 dosed 10 mpk PO gavage, 8.00 h, analyte = labelled compound): 23 ng/mL | concentration at 24 h ([1]; male, C57, mouse, plasma, po, 10 mg/kg, Example 14 dosed 10 mpk PO gavage, 24.00 h, analyte = labelled compound): 2.1 ng/mL | Cmax [1, 4]: 185 ng/mL | MRT [1, 4]: 186 min | Tmax [1, 4]: 34.8 min | Cmax [1, 5]: 164 ng/mL | MRT [1, 5]: 59.4 min | Tmax [1, 5]: 15 min | concentration at 0.25 h [1, 5]: 164 ng/mL | concentration at 0.5 h [1, 5]: 99 ng/mL | concentration at 1 h [1, 5]: 63 ng/mL | concentration at 2 h [1, 5]: 11 ng/mL | concentration at 4 h ([1]; male, C57, mouse, plasma, po, 10 mg/kg, Example 15 dosed 10 mpk PO gavage, 4.00 h): 3.2 ng/mL | concentration at 8 h ([1]; male, C57, mouse, plasma, po, 10 mg/kg, Example 15 dosed 10 mpk PO gavage, 8.00 h): 2 ng/mL | Vd [1, 6]: 0.49 L/kg | clearance [1, 6]: 23.3 mL/min/kg | half-life [1, 6]: 17.4 min
